Data published in PubChem BioAssay AID1918938 (Molecular Pharmacology Branch, DTP, NCI, 2023).

Tested on: 556581-035-R-J1-PDC complex spheroid viability
Experiment: Anticancer human tumor 556581-035-R-J1-PDC patient-derived ovarian carcinoma cell line growth inhibition
Details: for IC50: curve of first compound; for viability, T/C: stronger effect = lower value
In short: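 Drug combinations with the LSD1 inhibitor iadademstat tested on tumor cells co-cultured as spheroids with endothelial cells and mesenchymal stem cells. Concentrations descended in half-log increments from clinical Cmax or 10 microM.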

[1] = second compound 0.1 µM, first compound 0.0316 µM
[2] = second compound 0.1 µM, first compound 0.1 µM
[3] = second compound 0.1 µM, first compound 0.316 µM
[4] = second compound 0.1 µM, first compound 1 µM
[5] = second compound 0.316 µM, first compound 0.0316 µM
[6] = second compound 0.316 µM, first compound 0.1 µM
[7] = second compound 0.316 µM, first compound 0.316 µM
[8] = second compound 0.316 µM, first compound 1 µM
[9] = second compound 1 µM, first compound 0.0316 µM
[10] = second compound 1 µM, first compound 0.1 µM
[11] = second compound 1 µM, first compound 0.316 µM
[12] = second compound 1 µM, first compound 1 µM
[13] = second compound 3.16 µM, first compound 0.0316 µM
[14] = second compound 3.16 µM, first compound 0.1 µM
[15] = second compound 3.16 µM, first compound 0.316 µM
[16] = second compound 3.16 µM, first compound 1 µM
[17] = second compound 10 µM, first compound 0.0316 µM
[18] = second compound 10 µM, first compound 0.1 µM
[19] = second compound 10 µM, first compound 0.316 µM
[20] = second compound 10 µM, first compound 1 µM
[21] = second compound 0.1 µM, first compound 0.00316 µM
[22] = second compound 0.1 µM, first compound 0.01 µM
[23] = second compound 0.316 µM, first compound 0.00316 µM
[24] = second compound 0.316 µM, first compound 0.01 µM
[25] = second compound 1 µM, first compound 0.00316 µM
[26] = second compound 1 µM, first compound 0.01 µM
[27] = second compound 3.16 µM, first compound 0.00316 µM
[28] = second compound 3.16 µM, first compound 0.01 µM
[29] = second compound 10 µM, first compound 0.00316 µM
[30] = second compound 10 µM, first compound 0.01 µM
[31] = second compound 0.1 µM, first compound 0.00949 µM
[32] = second compound 0.1 µM, first compound 0.03 µM
[33] = second compound 0.1 µM, first compound 0.0949 µM
[34] = second compound 0.1 µM, first compound 0.3 µM
[35] = second compound 0.1 µM, first compound 0.949 µM
[36] = second compound 0.1 µM, first compound 3 µM
[37] = second compound 0.316 µM, first compound 0.00949 µM
[38] = second compound 0.316 µM, first compound 0.03 µM
[39] = second compound 0.316 µM, first compound 0.0949 µM
[40] = second compound 0.316 µM, first compound 0.3 µM
[41] = second compound 0.316 µM, first compound 0.949 µM
[42] = second compound 0.316 µM, first compound 3 µM
[43] = second compound 1 µM, first compound 0.00949 µM
[44] = second compound 1 µM, first compound 0.03 µM
[45] = second compound 1 µM, first compound 0.0949 µM
[46] = second compound 1 µM, first compound 0.3 µM
[47] = second compound 1 µM, first compound 0.949 µM
[48] = second compound 1 µM, first compound 3 µM
[49] = second compound 3.16 µM, first compound 0.00949 µM
[50] = second compound 3.16 µM, first compound 0.03 µM
[51] = second compound 3.16 µM, first compound 0.0949 µM
[52] = second compound 3.16 µM, first compound 0.3 µM
[53] = second compound 3.16 µM, first compound 0.949 µM
[54] = second compound 3.16 µM, first compound 3 µM
[55] = second compound 10 µM, first compound 0.00949 µM
[56] = second compound 10 µM, first compound 0.03 µM
[57] = second compound 10 µM, first compound 0.0949 µM
[58] = second compound 10 µM, first compound 0.3 µM
[59] = second compound 10 µM, first compound 0.949 µM
[60] = second compound 10 µM, first compound 3 µM
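Further: spheroids exposed to agents for seven days.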
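Wherever viability, T/C is given: 100% = DMSO vehicle control wells.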

CC1(C)CCC(CN2CCN(c3ccc(C(=O)NS(=O)(=O)c4ccc(NCC5CCOCC5)c([N+](=O)[O-])c4)c(Oc4cnc5[nH]ccc5c4)c3)CC2)=C(c2ccc(Cl)cc2)C1 + NC1CCC(NC2CC2c2ccccc2)CC1
IC50 (second compound 0.1 µM): 4380 nM | IC50 (second compound 0.316 µM): 3500 nM | IC50 (second compound 1 µM): 4180 nM | IC50 (second compound 3.16 µM): 3830 nM | IC50 (second compound 10 µM): 2920 nM | viability, T/C [1]: 80.7% | viability, T/C [2]: 86.4% | viability, T/C [3]: 80% | viability, T/C [4]: 82.8% | viability, T/C (second compound 0.1 µM, first compound 3.16 µM): 65.8% | viability, T/C (second compound 0.1 µM, first compound 10 µM): 9.71% | viability, T/C [5]: 79.9% | viability, T/C [6]: 93.8% | viability, T/C [7]: 89.5% | viability, T/C [8]: 84.9% | viability, T/C (second compound 0.316 µM, first compound 3.16 µM): 54.1% | viability, T/C (second compound 0.316 µM, first compound 10 µM): 7.68% | viability, T/C [9]: 74.2% | viability, T/C [10]: 90.7% | viability, T/C [11]: 88% | viability, T/C [12]: 70.8% | viability, T/C (second compound 1 µM, first compound 3.16 µM): 64.5% | viability, T/C (second compound 1 µM, first compound 10 µM): 10.5% | viability, T/C [13]: 79.2% | viability, T/C [14]: 77.1% | viability, T/C [15]: 77.5% | viability, T/C [16]: 70.6% | viability, T/C (second compound 3.16 µM, first compound 3.16 µM): 58.6% | viability, T/C (second compound 3.16 µM, first compound 10 µM): 11.8% | viability, T/C [17]: 75.4% | viability, T/C [18]: 77.3% | viability, T/C [19]: 73.5% | viability, T/C [20]: 59.9% | viability, T/C (second compound 10 µM, first compound 3.16 µM): 52.4% | viability, T/C (second compound 10 µM, first compound 10 µM): 7.8%

COc1cc(Nc2ncc3c(n2)-c2ccc(Cl)cc2C(c2c(F)cccc2OC)=NC3)ccc1C(=O)O + NC1CCC(NC2CC2c2ccccc2)CC1
IC50 (second compound 0.1 µM): 360 nM | IC50 (second compound 0.316 µM): 307 nM | IC50 (second compound 1 µM): 253 nM | IC50 (second compound 3.16 µM): 213 nM | IC50 (second compound 10 µM): 143 nM | viability, T/C [21]: 67.5% | viability, T/C [22]: 59.8% | viability, T/C [1]: 58.4% | viability, T/C [2]: 56.1% | viability, T/C [3]: 54.9% | viability, T/C [4]: 38.6% | viability, T/C [23]: 65.1% | viability, T/C [24]: 67.8% | viability, T/C [5]: 63.9% | viability, T/C [6]: 55% | viability, T/C [7]: 50.1% | viability, T/C [8]: 39.3% | viability, T/C [25]: 62.3% | viability, T/C [26]: 60.6% | viability, T/C [9]: 57% | viability, T/C [10]: 57.2% | viability, T/C [11]: 46.9% | viability, T/C [12]: 41.4% | viability, T/C [27]: 66.5% | viability, T/C [28]: 66.4% | viability, T/C [13]: 61.4% | viability, T/C [14]: 49% | viability, T/C [15]: 53% | viability, T/C [16]: 35.3% | viability, T/C [29]: 58.6% | viability, T/C [30]: 54.6% | viability, T/C [17]: 58.5% | viability, T/C [18]: 50.3% | viability, T/C [19]: 46% | viability, T/C [20]: 36.8%

Cn1ncnc1C1c2n[nH]c(=O)c3cc(F)cc(c23)NC1c1ccc(F)cc1 (stereo not given) + NC1CCC(NC2CC2c2ccccc2)CC1
IC50 (second compound 0.1 µM): > 100 nM | IC50 (second compound 0.316 µM): > 100 nM | IC50 (second compound 1 µM): > 100 nM | IC50 (second compound 3.16 µM): > 100 nM | IC50 (second compound 10 µM): > 100 nM | viability, T/C (second compound 0.1 µM, first compound 0.000316 µM): 97% | viability, T/C (second compound 0.1 µM, first compound 0.001 µM): 105% | viability, T/C [21]: 92.3% | viability, T/C [22]: 91.2% | viability, T/C [1]: 94% | viability, T/C [2]: 85.4% | viability, T/C (second compound 0.316 µM, first compound 0.000316 µM): 100% | viability, T/C (second compound 0.316 µM, first compound 0.001 µM): 94.7% | viability, T/C [23]: 99.6% | viability, T/C [24]: 91.6% | viability, T/C [5]: 87.4% | viability, T/C [6]: 91.9% | viability, T/C (second compound 1 µM, first compound 0.000316 µM): 91% | viability, T/C (second compound 1 µM, first compound 0.001 µM): 92.2% | viability, T/C [25]: 94.1% | viability, T/C [26]: 101% | viability, T/C [9]: 80.6% | viability, T/C [10]: 92.1% | viability, T/C (second compound 3.16 µM, first compound 0.000316 µM): 87.1% | viability, T/C (second compound 3.16 µM, first compound 0.001 µM): 87.2% | viability, T/C [27]: 89.3% | viability, T/C [28]: 79.5% | viability, T/C [13]: 84.9% | viability, T/C [14]: 80.8% | viability, T/C (second compound 10 µM, first compound 0.000316 µM): 73.9% | viability, T/C (second compound 10 µM, first compound 0.001 µM): 77.8% | viability, T/C [29]: 76.1% | viability, T/C [30]: 80.8% | viability, T/C [17]: 73.5% | viability, T/C [18]: 71.5%

NS(=O)(=O)OCC1CC(n2ccc3c(NC4CCc5ccccc54)ncnc32)CC1O (stereo not given) + NC1CCC(NC2CC2c2ccccc2)CC1
IC50 (second compound 0.1 µM): > 3000 nM | IC50 (second compound 0.316 µM): > 3000 nM | IC50 (second compound 1 µM): 2370 nM | IC50 (second compound 3.16 µM): 1500 nM | IC50 (second compound 10 µM): 545 nM | viability, T/C [31]: 117% | viability, T/C [32]: 122% | viability, T/C [33]: 124% | viability, T/C [34]: 91.3% | viability, T/C [35]: 86.6% | viability, T/C [36]: 58.4% | viability, T/C [37]: 119% | viability, T/C [38]: 112% | viability, T/C [39]: 123% | viability, T/C [40]: 99.8% | viability, T/C [41]: 85.7% | viability, T/C [42]: 50.4% | viability, T/C [43]: 99% | viability, T/C [44]: 115% | viability, T/C [45]: 121% | viability, T/C [46]: 92.2% | viability, T/C [47]: 74.3% | viability, T/C [48]: 43.7% | viability, T/C [49]: 103% | viability, T/C [50]: 106% | viability, T/C [51]: 110% | viability, T/C [52]: 84.8% | viability, T/C [53]: 65.9% | viability, T/C [54]: 28.8% | viability, T/C [55]: 86.7% | viability, T/C [56]: 86.1% | viability, T/C [57]: 83.4% | viability, T/C [58]: 62.1% | viability, T/C [59]: 37.9% | viability, T/C [60]: 15.2%

O=C(C=Cc1cccc(S(=O)(=O)Nc2ccccc2)c1)NO + NC1CCC(NC2CC2c2ccccc2)CC1
IC50 (second compound 0.1 µM): 108 nM | IC50 (second compound 0.316 µM): 87 nM | IC50 (second compound 1 µM): 76.3 nM | IC50 (second compound 3.16 µM): 92.8 nM | IC50 (second compound 10 µM): 39.6 nM | viability, T/C [31]: 85.6% | viability, T/C [32]: 78.4% | viability, T/C [33]: 51.1% | viability, T/C [34]: 26.1% | viability, T/C [35]: 1.81% | viability, T/C [36]: 0.24% | viability, T/C [37]: 87.7% | viability, T/C [38]: 74.3% | viability, T/C [39]: 42.9% | viability, T/C [40]: 31.7% | viability, T/C [41]: 3.05% | viability, T/C [42]: 0.34% | viability, T/C [43]: 97.2% | viability, T/C [44]: 65.7% | viability, T/C [45]: 50.4% | viability, T/C [46]: 24.6% | viability, T/C [47]: 2.56% | viability, T/C [48]: 0.21% | viability, T/C [49]: 77.9% | viability, T/C [50]: 73.1% | viability, T/C [51]: 47.9% | viability, T/C [52]: 22% | viability, T/C [53]: 2.44% | viability, T/C [54]: 0.16% | viability, T/C [55]: 74.2% | viability, T/C [56]: 51.7% | viability, T/C [57]: 37.6% | viability, T/C [58]: 23% | viability, T/C [59]: 1.28% | viability, T/C [60]: 0.28%
